From patent US20230100193A1, “NOVEL PHARMACEUTICAL FORMULATIONS CONTAINING INDIRUBIN AND DERIVATIVES THEREOF AND METHODS OF MAKING AND USING THE SAME” (Cytodigm, Inc., priority 2017, published 2023)

Assay: Dissolution measurement after 30 minutes in 2% Tween 20 in PBS, HPLC of supernatant
Format: physicochemical
Conditions: after stirring for 30 minutes, centrifuged 14,000 rpm 15 min, HPLC 292 nm, 6-BIA 1.10 mg in 110 mL, nanoparticles approx. 1.32 mg/ml 6-BIA
Procedure: As a control, dissolution of 6-BIA without polymer was first tested. 1.10 mg of 6-BIA was added to 110 mL of 2% Tween 20 in PBS. After stirring for 30 minutes, 1 mL of the resulting suspension was immediately collected to an Eppendorf tube. The Eppendorf tube was centrifuged at 14,000 rpm for 15 min.
Encapsulated 6-BIA nanoparticles obtained in Example 4 were re-suspended in 2% Tween 20 in PBS to form a nanoparticle suspension containing approximately 1.32 mg/ml of 6-BIA in the nanoparticles. After stirring for 30 minutes, 1 mL of the resulting suspension was immediately collected to an Eppendorf tube. The Eppendorf tube was centrifuged at 14,000 rpm for 15 min.

6-BIA concentration in supernatant (30-minute dissolution): 3.89 µg/mL
SMILES: O=C1Nc2cc(Br)ccc2/C1=C1/Nc2ccccc2/C1=N\O [Example 6-BIA, 6-bromoindirubin-3′-oxime]
